Source: ChEMBL document CHEMBL3868594, “From lead optimization to NDA approval for a new antimicrobial: Use of pre-clinical effect models and pharmacokinetic/pharmacodynamic mathematical modeling” (2016)

Assays:
Type in all cases: functional
[1] = system: Mycobacterium tuberculosis; assay: Antibacterial activity against linezolid-resistant Mycobacterium tuberculosis H37Rv in hollow-fiber infection model assessed as reduction in bacterial burden at 600 mg, po at 24 hrs dose regimen measured after 3 weeks
[2] = system: Mycobacterium tuberculosis; assay: Antibacterial activity against linezolid-resistant Mycobacterium tuberculosis H37Rv in hollow-fiber infection model assessed as reduction in bacterial burden at 342 mg, po at 24 hrs dose regimen measured after 3 weeks
[3] = system: Mycobacterium tuberculosis; assay: Antibacterial activity against linezolid-resistant Mycobacterium tuberculosis H37Rv in hollow-fiber infection model assessed as reduction in bacterial burden at 1116 mg, po at 24 hrs dose regimen measured after 3 weeks
[4] = system: Mycobacterium tuberculosis; assay: Antibacterial activity against linezolid-resistant Mycobacterium tuberculosis H37Rv in hollow-fiber infection model assessed as reduction in bacterial burden at 858 mg, po at 24 hrs dose regimen measured after 3 weeks

For `CC(=O)NC[C@H]1CN(c2ccc(N3CCOCC3)c(F)c2)C(=O)O1` [LINEZOLID], which Activity [1] is on record?
The Activity was 1.7 log10CFU/ml.

And the Activity [2]?
The Activity was 0.5 log10CFU/ml.

What about the Activity [3] of the same compound?
The Activity was 3 log10CFU/ml.

What about the Activity [4] of the same compound?
The Activity was 3 log10CFU/ml.
